{
  "source": "patent US20230025280A1",
  "about": "“PH RESPONSIVE COMPOSITIONS, FORMULATIONS, AND METHODS OF IMAGING A TUMOR” (ONCONANO MEDICINE, INC, priority 2019, published 2023)",
  "key": {"[1]": {"tested_on": "solid cancers (HNSCC, breast cancer, esophageal cancer, or colorectal cancer)", "assay": "Intraoperative fluorescence imaging of tumors (in vivo and back table; MFI, CNR, TBR)", "design": "species or system human", "settings": "for In Vivo CNR / In Vivo TBR: per patient, open field cameras; for Patient tumors showing Compound 1 fluorescence intraoperatively: 0.1 to 1.2 mg/kg, 24±8 h post dose; for Tumors visualized intraoperatively by Compound 1 fluorescence / Tumors that could not be visualized intraoperatively: Phase 1 overall", "excerpt": "(§1) During surgery, intraoperative images of Compound 1 fluorescence were obtained from the primary tumors and metastatic lymph nodes as well as the surrounding tissue which include normal noncancerous tissues using NIR camera(s). This may be in vivo and/or ex vivo imaging of resected specimens. If the surgeon considered it safe, up to a maximum of 10 study related biopsies were taken from the regions with Compound 1 fluorescence that were otherwise not suspected as tumor clinically. Feasibility to image tumors with Compound 1 using multiple NIR cameras was evaluated.\nIntraoperative images and videos of “open surgery” were obtained using either the NOVADAQ SPY Elite or the SurgVision Explorer Air. The distance of the camera to the tumor was approximately 20 cm for the Explorer Air and 30 cm for the NOVADAQ SPY, according to manual instructions. The NOVADAQ SPY camera was only able to make fluorescent videos, which could be converted to images during post-processing. The settings for raw data acquisition for this camera were fixed. For the Explorer Air, attempt was made to use the same settings (exposure time and gain) for each patient to allow direct comparison between the images obtained from both the systems, however, depending on the amount of fluorescence visible during surgery, adjustments were needed in some cases due to saturation of the camera system. In some patients, the Olympus NIR laparoscope and Da Vinci Firefly camera systems were used when no open surgery was performed. Systems were used according to the manufacturer's manual.\nFirst, pre-excision fluorescence images and/or movies of the tumor and surrounding areas were made. After surgical excision, images of the wound bed were obtained. In cases where a fluorescence region was visible in the wound bed, a biopsy was taken when feasible, and the excised specimen imaged on all sides on the back table in the operating room. If applicable, lymph nodes were imaged when possible in situ and on the back table, after which the wound bed of the lymph node dissection was imaged again.\nDesignated imaging study staff performed fluorescence imaging. The surgeon was blinded to the pre-excision imaging to avoid any bias on standard surgery, but was able to look at a second monitor for white-light images while performing the surgical procedure. The surgeon assisted in the wound bed and back table imaging. During the imaging procedure, the ambient light in the surgical theatre was switched off to prevent possible interaction with the fluorescence imaging procedure itself.\nImages were processed using Fiji (ImageJ, version 2.0.0). Images were scaled on a per-patient basis, based on the maximum and minimum fluorescent intensity per pixel.\nImmediately after excision, the whole specimen was imaged on all 6 resection planes (e.g., frontal, dorsal, lateral, medial, caudal and cranial) using both the designated intraoperative camera system as well as the LI-COR PEARL® Trilogy system within a maximum duration of 60 minutes after surgical excision of the specimen (intraoperative back table imaging). […] Specimens were inked with blue and black ink to mark resection planes.\nA macroscopic correlation between visible white light of the tumor areas and corresponding fluorescence images was made. After drawing ROIs containing macroscopic tumor and ROIs containing background, MFI of both tumor and background areas were calculated. Fluorescence ratios (CNR, TBR) were calculated on a per patient basis (3 measurements per patient) following the calculations described above."}, "[2]": {"tested_on": "occult lesions", "assay": "Detection of occult disease by Compound 1 fluorescence", "type": "in vivo, human", "excerpt": "as §1\nCompound 1 fluorescence detected 5 additional occult lesions (1 patient with HNSCC and 4 patients with BC) otherwise missed by SOC preoperative surgery or during surgery or postoperative pathology. In 1 patient with HNSCC (ON1113) who had both a fluorescent and histopathological positive surgical margin, a satellite metastasis that was otherwise undetected by standard-of-care surgery was detected in the wound bed by Compound 1 fluorescence image-guided surgery."}, "[3]": {"assay": "Phase 1 safety assessment", "type": "in vivo, human", "method": "Phase 1a was a dose-finding study performed in 5 cohorts of 3 patients each. The dose levels evaluated were […], and 1.2 mg/kg, in this sequence. Inter-cohort dose escalation took place after the last patient in the previous cohort completed the Day 10 safety assessment. Safety, PK, and imaging feasibility were evaluated in both the Phase 1a and 1b portions of the study. Patient safety is assessed during the study and for up to 10 days post-dose."}},
  "note": "Where “and” joins values, the source holds several entries; their conditions need not be identical. Equal entries are not always repeated.",
  "data": [
    {"substance": "PEO90-140-b-P(DBA60-150-r-ICG0-3-r-AMA0-3) [Compound 1]", "values": [
      {"measurement": "In Vivo CNR", "setting": "[1]; 0.1 mg/kg, HNSCC", "value": "2.9 and 21.5 and 3.3"},
      {"measurement": "In Vivo TBR", "setting": "[1]; 0.1 mg/kg, HNSCC", "value": "1.7 (2×) and 5.7"},
      {"measurement": "In Vivo CNR", "setting": "[1]; 0.5 mg/kg, BC", "value": 2.5},
      {"measurement": "In Vivo TBR", "setting": "[1]; 0.5 mg/kg, BC", "value": 1.6},
      {"measurement": "In Vivo CNR", "setting": "[1]; 0.5 mg/kg, HNSCC", "value": "17.3 and 29.3"},
      {"measurement": "In Vivo TBR", "setting": "[1]; 0.5 mg/kg, HNSCC", "value": "3.3 and 5.0"},
      {"measurement": "In Vivo CNR", "setting": "[1]; 0.8 mg/kg, BC", "value": 12.7},
      {"measurement": "In Vivo TBR", "setting": "[1]; 0.8 mg/kg, BC", "value": 3.7},
      {"measurement": "In Vivo CNR", "setting": "[1]; 0.8 mg/kg, HNSCC", "value": 4.1},
      {"measurement": "In Vivo TBR", "setting": "[1]; 0.8 mg/kg, HNSCC", "value": 2.7},
      {"measurement": "Patients for whom in vivo (intraoperative) imaging was feasible", "setting": "[1]; 1.2 mg/kg, Phase 1a and 1b, all tumor types", "value": "11 of 18 and 11 of the 18"},
      {"measurement": "Patients for whom in vivo imaging was feasible", "setting": "[1]; 1.2 mg/kg, BC", "value": "3 of 5"},
      {"measurement": "In Vivo CNR", "setting": "[1]; 1.2 mg/kg, BC", "value": "7.8 and 9.2 and 1.3"},
      {"measurement": "In Vivo TBR", "setting": "[1]; 1.2 mg/kg, BC", "value": "3.9 and 3.4 and 1.2"},
      {"measurement": "Patients for whom in vivo imaging was feasible", "setting": "[1]; 1.2 mg/kg, CRC", "value": "1 of 3"},
      {"measurement": "In Vivo CNR", "setting": "[1]; 1.2 mg/kg, CRC", "value": 7.4},
      {"measurement": "In Vivo TBR", "setting": "[1]; 1.2 mg/kg, CRC", "value": 2.4},
      {"measurement": "Patients for whom in vivo imaging was feasible", "setting": "[1]; 1.2 mg/kg, EC", "value": "0 of 3"},
      {"measurement": "Patients for whom in vivo imaging was feasible", "setting": "[1]; 1.2 mg/kg, HNSCC", "value": "7 of 7"},
      {"measurement": "In Vivo CNR", "setting": "[1]; 1.2 mg/kg, HNSCC", "value": "28.7 and 5.8 and 20.8 and 29.9 and 3.4 and 2.8 and 3.5"},
      {"measurement": "In Vivo TBR", "setting": "[1]; 1.2 mg/kg, HNSCC", "value": "4.7 and 2.1 and 2.9 and 5.4 and 2.3 and 1.8 and 2.7"},
      {"measurement": "Median in vivo TBR", "setting": "[1]; 1.2 mg/kg, mucosal tumors (HNSCC), interquartile range of 1.4", "value": 2.6},
      {"measurement": "Median in vivo CNR", "setting": "[1]; 1.2 mg/kg, mucosal tumors (HNSCC), interquartile range of 17.6", "value": 5.6},
      {"measurement": "Patients in whom fluorescence imaging was feasible (patients with viable tumors)", "setting": "[1]; Phase 1, all 4 tumor types", "value": "29 out of 30"},
      {"measurement": "Patient tumors showing Compound 1 fluorescence intraoperatively", "setting": "[1]; Phase 1a, BC", "value": "Two of the 7 and 2 of 7"},
      {"measurement": "Patient tumors showing Compound 1 fluorescence intraoperatively", "setting": "[1]; Phase 1a, HNSCC", "value": "8 and 8 of 8"},
      {"measurement": "CNR and TBR values", "setting": "[1]; Phase 1a, in vivo tumor and postoperative specimen fluorescence", "value": "2-15"},
      {"measurement": "Intraoperative detection of intraluminal EC tumors", "setting": "[1]; Phase 1b, 3 EC tumors, extraluminal imaging, 1.2 mg/kg", "value": "not detected"},
      {"measurement": "Patient tumors in which Compound 1 fluoresced intraoperatively", "setting": "[1]; Phase 1b, BC, 1.2 mg/kg", "value": "3 of 4"},
      {"measurement": "Patient tumors in which Compound 1 fluoresced intraoperatively", "setting": "[1]; Phase 1b, CRC, 1.2 mg/kg", "value": "2 of 3"},
      {"measurement": "Patient tumors in which Compound 1 fluoresced intraoperatively", "setting": "[1]; Phase 1b, HNSCC, 1.2 mg/kg", "value": "5 of 5"},
      {"measurement": "Patient tumors in which Compound 1 fluoresced intraoperatively", "setting": "[1]; Phase 1b, all tumor types, 1.2 mg/kg", "value": "10/15"},
      {"measurement": "Tumors visualized intraoperatively by Compound 1 fluorescence", "setting": "[1]; CRC", "value": "2 of 3"},
      {"measurement": "Tumors that could not be visualized intraoperatively", "setting": "[1]; CRC (distant rectal tumor)", "value": "1 of 3"},
      {"measurement": "Tumors visualized intraoperatively by Compound 1 fluorescence", "setting": "[1]; HNSCC", "value": 13},
      {"measurement": "Tumors that could not be visualized intraoperatively", "setting": "[1]; deeper seated BC", "value": "6 of 11"},
      {"measurement": "Tumors that could not be visualized intraoperatively", "setting": "[1]; intraluminal EC", "value": "2 of 3"},
      {"measurement": "Tumors visualized intraoperatively by Compound 1 fluorescence", "setting": "[1]; superficially seated BC", "value": "5 of 11"},
      {"measurement": "Intraoperative TBR and CNR values", "setting": "[1]; all patients with feasible intraoperative imaging", "value": "high"},
      {"measurement": "Additional occult lesions detected", "setting": "[2]; 1 patient with HNSCC and 4 patients with BC", "value": 5},
      {"measurement": "Other occult tumors detected by in vivo wound-bed imaging", "setting": "[2]; missed by routine surgery, confirmed by pathology", "value": 2},
      {"measurement": "Additional satellite lesions and second primaries detected ex vivo", "setting": "[2]; pathology specimens", "value": 3},
      {"measurement": "Safety profile", "setting": "[3]; Phase 1a, 0.1 to 1.2 mg/kg", "value": "comparable at all the dose levels studied and did not raise any specific safety concerns"},
      {"measurement": "Tolerability", "setting": "[3]; Phase 1b, 1.2 mg/kg", "value": "well tolerated"}
    ]}
  ]
}
